Assay results taken from ChEMBL document CHEMBL3885861, “Open TG-GATES”.

Species: Rattus norvegicus
Assay: Open TG-GATES - Regimen: Single
Type: toxicity, organism-based, Sprague-Dawley
Design: regimen Single, gender Male, age 6 weeks
Conditions: in vivo, po, route gavage; for KIDNEY_L / KIDNEY_R / KIDNEY_TOTAL: tissue Kidney; for LIVER: tissue Liver; for ALP / ALT / CRE / DBIL / GLC / IP / K / Na / RALB / TBIL / TG / TP / gamma-GTP / BUN / PL: tissue Plasma
[1] = 0 mg/kg, 3 h, dose level Control
[2] = 0 mg/kg, 3 h, tissue Blood, dose level Control
[3] = 0 mg/kg, 6 h, dose level Control
[4] = 0 mg/kg, 6 h, tissue Blood, dose level Control
[5] = 0 mg/kg, 9 h, dose level Control
[6] = 0 mg/kg, 9 h, tissue Blood, dose level Control
[7] = 0 mg/kg, 24 h, dose level Control
[8] = 0 mg/kg, 24 h, tissue Blood, dose level Control
[9] = 3 mg/kg, 3 h, tissue Blood, dose level Low
[10] = 3 mg/kg, 6 h, tissue Blood, dose level Low
[11] = 3 mg/kg, 9 h, tissue Blood, dose level Low
[12] = 3 mg/kg, 24 h, tissue Blood, dose level Low

Work on `CNCCC(Oc1ccc(C(F)(F)F)cc1)c1ccccc1.Cl` (centres undefined) [FLUOXETINE HYDROCHLORIDE] yielded a TERMINAL_BW [1] of 216.5 g, a Bas [2] of 0% and an Eos [2] of 1%. The Ht [2] was 41.2%, the Lym [2] was 72.6% and the MCHC [2] was 32.1%. For the same compound, the Ret [2] was 8.8%, the WBC [2] was 83.4 x10_2/uL and the KIDNEY_L [1] was 0.9 g. The KIDNEY_R [1] was 0.9 g, the KIDNEY_TOTAL [1] was 1.9 g and the LIVER [1] was 10.4 g. The ALP [1] was 1343.2 IU/L, the ALT [1] was 37.8 IU/L and the CRE [1] was 0.4 mg/dL. The DBIL [1] was 0.014 mg/dL, the GLC [1] was 198 mg/dL and the IP [1] was 10.1 mg/dL. The K [1] was 4.9 meq/L, the Na [1] was 138.2 meq/L and the RALB [1] was 4.1 g/dL. For the same compound, the TBIL [1] was 0.056 mg/dL, the TG [1] was 81.8 mg/dL and the TP [1] was 5.7 g/dL. For the same compound, the gamma-GTP [1] was 0.4 IU/L, the TERMINAL_BW [3] was 217.6 g and the Bas [4] was 0%. It also gave an Eos [4] of 1%, a Ht [4] of 41.1% and a Lym [4] of 72%. The MCHC [4] was 32.2%, the Ret [4] was 6.9% and the WBC [4] was 98.6 x10_2/uL. The KIDNEY_L [3] was 1 g, the KIDNEY_R [3] was 1 g and the KIDNEY_TOTAL [3] was 2.1 g. The LIVER [3] was 9.3 g, the ALP [3] was 1497.6 IU/L and the ALT [3] was 35 IU/L. For the same compound, the BUN [3] was 9.2 mg/dL, the CRE [3] was 0.4 mg/dL and the DBIL [3] was 0.008 mg/dL. The GLC [3] was 191 mg/dL, the IP [3] was 9.8 mg/dL and the K [3] was 5 meq/L. It also gave a Na [3] of 137.3 meq/L, a PL [3] of 131.2 mg/dL and an RALB [3] of 3.8 g/dL. For the same compound, the TBIL [3] was 0.048 mg/dL, the TG [3] was 45.8 mg/dL and the TP [3] was 5.3 g/dL. It also gave a gamma-GTP [3] of 1 IU/L, a TERMINAL_BW [5] of 216.1 g and a Bas [6] of 0%. It also gave an Eos [6] of 1%, a Ht [6] of 40.2% and a Lym [6] of 66.4%. For the same compound, the MCHC [6] was 32.5%, the Ret [6] was 8% and the WBC [6] was 106.4 x10_2/uL. It also gave a KIDNEY_L [5] of 1 g, a KIDNEY_R [5] of 1 g and a KIDNEY_TOTAL [5] of 2 g. The LIVER [5] was 9.2 g, the ALP [5] was 1190.2 IU/L and the ALT [5] was 28.6 IU/L. For the same compound, the CRE [5] was 0.4 mg/dL, the DBIL [5] was 0.01 mg/dL and the GLC [5] was 188.2 mg/dL. The IP [5] was 10.2 mg/dL, the K [5] was 5.1 meq/L and the Na [5] was 139 meq/L. For the same compound, the PL [5] was 139.8 mg/dL, the RALB [5] was 3.8 g/dL and the TBIL [5] was 0.042 mg/dL. The TG [5] was 63 mg/dL, the TP [5] was 5.3 g/dL and the gamma-GTP [5] was 0.4 IU/L. It also gave a TERMINAL_BW [7] of 234.5 g, a Bas [8] of 0% and an Eos [8] of 1%. The Ht [8] was 39.6%, the Lym [8] was 76.4% and the MCHC [8] was 32.7%. It also gave a Ret [8] of 7%, a WBC [8] of 121.8 x10_2/uL and a KIDNEY_L [7] of 1 g. The KIDNEY_R [7] was 1 g, the KIDNEY_TOTAL [7] was 2 g and the ALP [7] was 1409.4 IU/L. The ALT [7] was 36.6 IU/L, the CRE [7] was 0.4 mg/dL and the DBIL [7] was 0.012 mg/dL. It also gave a GLC [7] of 194.6 mg/dL, an IP [7] of 8.1 mg/dL and a K [7] of 5.1 meq/L. For the same compound, the Na [7] was 138.3 meq/L, the RALB [7] was 4 g/dL and the TBIL [7] was 0.036 mg/dL. It also gave a TG [7] of 133.6 mg/dL, a TP [7] of 5.6 g/dL and a gamma-GTP [7] of 1 IU/L. The TERMINAL_BW (3 mg/kg, 3 h, dose level Low) was 213 g, the Bas [9] was 0% and the Eos [9] was 1%. For the same compound, the Ht [9] was 41.8%, the Lym [9] was 76.6% and the MCHC [9] was 32.2%. For the same compound, the Ret [9] was 7.7%, the WBC [9] was 94.4 x10_2/uL and the KIDNEY_L (3 mg/kg, 3 h, dose level Low) was 0.9 g. The KIDNEY_R (3 mg/kg, 3 h, dose level Low) was 0.9 g, the KIDNEY_TOTAL (3 mg/kg, 3 h, dose level Low) was 1.8 g and the LIVER (3 mg/kg, 3 h, dose level Low) was 9.9 g. It also gave an ALP (3 mg/kg, 3 h, dose level Low) of 1490.4 IU/L, an ALT (3 mg/kg, 3 h, dose level Low) of 36.6 IU/L and a BUN (3 mg/kg, 3 h, dose level Low) of 11.4 mg/dL. It also gave a CRE (3 mg/kg, 3 h, dose level Low) of 0.4 mg/dL, a DBIL (3 mg/kg, 3 h, dose level Low) of 0.012 mg/dL and a GLC (3 mg/kg, 3 h, dose level Low) of 209 mg/dL. For the same compound, the IP (3 mg/kg, 3 h, dose level Low) was 10 mg/dL, the K (3 mg/kg, 3 h, dose level Low) was 4.5 meq/L and the Na (3 mg/kg, 3 h, dose level Low) was 138 meq/L. It also gave an RALB (3 mg/kg, 3 h, dose level Low) of 4.1 g/dL, a TBIL (3 mg/kg, 3 h, dose level Low) of 0.042 mg/dL and a TG (3 mg/kg, 3 h, dose level Low) of 85 mg/dL. For the same compound, the TP (3 mg/kg, 3 h, dose level Low) was 5.8 g/dL, the gamma-GTP (3 mg/kg, 3 h, dose level Low) was 0.2 IU/L and the TERMINAL_BW (3 mg/kg, 6 h, dose level Low) was 215.1 g. It also gave a Bas [10] of 0%, an Eos [10] of 1% and a Ht [10] of 41.2%. For the same compound, the Lym [10] was 67.4%, the MCH [10] was 22 pg and the MCHC [10] was 32.5%. For the same compound, the Ret [10] was 6.8%, the WBC [10] was 80.2 x10_2/uL and the KIDNEY_L (3 mg/kg, 6 h, dose level Low) was 0.9 g. For the same compound, the KIDNEY_R (3 mg/kg, 6 h, dose level Low) was 0.9 g, the KIDNEY_TOTAL (3 mg/kg, 6 h, dose level Low) was 1.8 g and the LIVER (3 mg/kg, 6 h, dose level Low) was 9.5 g. For the same compound, the ALP (3 mg/kg, 6 h, dose level Low) was 1275 IU/L, the ALT (3 mg/kg, 6 h, dose level Low) was 36.8 IU/L and the BUN (3 mg/kg, 6 h, dose level Low) was 10.2 mg/dL. For the same compound, the CRE (3 mg/kg, 6 h, dose level Low) was 0.4 mg/dL, the DBIL (3 mg/kg, 6 h, dose level Low) was 0.01 mg/dL and the GLC (3 mg/kg, 6 h, dose level Low) was 196 mg/dL. For the same compound, the IP (3 mg/kg, 6 h, dose level Low) was 10.3 mg/dL, the K (3 mg/kg, 6 h, dose level Low) was 4.8 meq/L and the Na (3 mg/kg, 6 h, dose level Low) was 137.7 meq/L. The RALB (3 mg/kg, 6 h, dose level Low) was 3.9 g/dL, the TBIL (3 mg/kg, 6 h, dose level Low) was 0.046 mg/dL and the TG (3 mg/kg, 6 h, dose level Low) was 100 mg/dL. For the same compound, the TP (3 mg/kg, 6 h, dose level Low) was 5.4 g/dL, the gamma-GTP (3 mg/kg, 6 h, dose level Low) was 1 IU/L and the TERMINAL_BW (3 mg/kg, 9 h, dose level Low) was 212.9 g. The Bas [11] was 0%, the Eos [11] was 1% and the Ht [11] was 40.1%. The Lym [11] was 69.2%, the MCHC [11] was 32.4% and the Ret [11] was 6.5%. It also gave a WBC [11] of 79.8 x10_2/uL, a KIDNEY_L (3 mg/kg, 9 h, dose level Low) of 0.9 g and a KIDNEY_R (3 mg/kg, 9 h, dose level Low) of 0.9 g. For the same compound, the KIDNEY_TOTAL (3 mg/kg, 9 h, dose level Low) was 1.8 g, the LIVER (3 mg/kg, 9 h, dose level Low) was 9.3 g and the ALP (3 mg/kg, 9 h, dose level Low) was 1183.8 IU/L. The ALT (3 mg/kg, 9 h, dose level Low) was 27.6 IU/L, the BUN (3 mg/kg, 9 h, dose level Low) was 11.2 mg/dL and the CRE (3 mg/kg, 9 h, dose level Low) was 0.4 mg/dL. The DBIL (3 mg/kg, 9 h, dose level Low) was 0.01 mg/dL, the GLC (3 mg/kg, 9 h, dose level Low) was 195.6 mg/dL and the IP (3 mg/kg, 9 h, dose level Low) was 10.2 mg/dL. It also gave a K (3 mg/kg, 9 h, dose level Low) of 5 meq/L, a Na (3 mg/kg, 9 h, dose level Low) of 139.1 meq/L and a PL (3 mg/kg, 9 h, dose level Low) of 136.8 mg/dL. It also gave an RALB (3 mg/kg, 9 h, dose level Low) of 3.9 g/dL, a TBIL (3 mg/kg, 9 h, dose level Low) of 0.036 mg/dL and a TG (3 mg/kg, 9 h, dose level Low) of 59.2 mg/dL. The TP (3 mg/kg, 9 h, dose level Low) was 5.5 g/dL, the gamma-GTP (3 mg/kg, 9 h, dose level Low) was 0.4 IU/L and the TERMINAL_BW (3 mg/kg, 24 h, dose level Low) was 223.4 g. For the same compound, the Bas [12] was 0%, the Eos [12] was 1% and the Ht [12] was 40.2%. The Lym [12] was 72%, the MCHC [12] was 32.5% and the Ret [12] was 7.1%. The WBC [12] was 86.8 x10_2/uL, the KIDNEY_L (3 mg/kg, 24 h, dose level Low) was 1 g and the KIDNEY_R (3 mg/kg, 24 h, dose level Low) was 1 g. It also gave a KIDNEY_TOTAL (3 mg/kg, 24 h, dose level Low) of 2 g, an LIVER (3 mg/kg, 24 h, dose level Low) of 10.5 g and an ALP (3 mg/kg, 24 h, dose level Low) of 1597.4 IU/L. For the same compound, the ALT (3 mg/kg, 24 h, dose level Low) was 35.6 IU/L, the BUN (3 mg/kg, 24 h, dose level Low) was 16.4 mg/dL and the CRE (3 mg/kg, 24 h, dose level Low) was 0.4 mg/dL. The DBIL (3 mg/kg, 24 h, dose level Low) was 0.01 mg/dL, the GLC (3 mg/kg, 24 h, dose level Low) was 194.8 mg/dL and the IP (3 mg/kg, 24 h, dose level Low) was 8 mg/dL. For the same compound, the K (3 mg/kg, 24 h, dose level Low) was 4.9 meq/L, the Na (3 mg/kg, 24 h, dose level Low) was 139.1 meq/L and the RALB (3 mg/kg, 24 h, dose level Low) was 3.9 g/dL. The TBIL (3 mg/kg, 24 h, dose level Low) was 0.034 mg/dL, the TG (3 mg/kg, 24 h, dose level Low) was 124.2 mg/dL and the TP (3 mg/kg, 24 h, dose level Low) was 5.6 g/dL. For the same compound, the gamma-GTP (3 mg/kg, 24 h, dose level Low) was 1 IU/L and the TERMINAL_BW (10 mg/kg, 3 h, dose level Middle) was 225.1 g.
